Data published in ChEMBL document CHEMBL4507268 (2021).

How the values were obtained:
[1] = molecular target: Serine/threonine-protein kinase DCLK1 (Homo sapiens) (UniProt O15075); details: Compound concentration 1000.0 nM
[2] = tested on: Receptor-type tyrosine-protein kinase FLT3 (Homo sapiens), P36888 [N841I]; details: Compound concentration 1000.0 nM
[3] = molecular target: T1, Inhibitor of nuclear factor kappa-B kinase subunit epsilon (Homo sapiens) (UniProt Q14164); details: Compound concentration 1000.0 nM
T1 sequence (whole entry): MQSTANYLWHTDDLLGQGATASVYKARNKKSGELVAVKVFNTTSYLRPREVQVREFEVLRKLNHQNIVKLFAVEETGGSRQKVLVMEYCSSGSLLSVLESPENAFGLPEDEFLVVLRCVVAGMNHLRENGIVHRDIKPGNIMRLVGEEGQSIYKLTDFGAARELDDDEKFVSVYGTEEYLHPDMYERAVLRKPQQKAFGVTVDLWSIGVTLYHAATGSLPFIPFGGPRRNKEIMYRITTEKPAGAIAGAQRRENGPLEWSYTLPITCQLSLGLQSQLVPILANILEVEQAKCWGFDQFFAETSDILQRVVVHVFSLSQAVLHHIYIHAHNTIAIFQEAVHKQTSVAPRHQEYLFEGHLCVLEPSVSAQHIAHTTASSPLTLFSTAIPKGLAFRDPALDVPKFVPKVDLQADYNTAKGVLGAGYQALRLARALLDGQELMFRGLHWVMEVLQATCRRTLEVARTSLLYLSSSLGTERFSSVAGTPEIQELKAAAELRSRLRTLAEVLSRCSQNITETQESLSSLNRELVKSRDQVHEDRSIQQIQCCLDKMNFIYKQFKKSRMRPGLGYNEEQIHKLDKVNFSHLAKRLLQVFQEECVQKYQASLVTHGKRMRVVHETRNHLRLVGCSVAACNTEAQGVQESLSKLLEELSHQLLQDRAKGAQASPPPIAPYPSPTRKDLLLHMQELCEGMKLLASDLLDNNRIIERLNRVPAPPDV

[4] = molecular target: Mast/stem cell growth factor receptor Kit (Homo sapiens) (UniProt P10721); details: Compound concentration 1000.0 nM
[5] = molecular target: Myosin-IIIa (Homo sapiens) (UniProt Q8NEV4); details: Compound concentration 1000.0 nM
[6] = molecular target: T2, Serine/threonine-protein kinase Nek2 (Homo sapiens) (UniProt P51955); details: Compound concentration 1000.0 nM
T2 sequence (whole entry): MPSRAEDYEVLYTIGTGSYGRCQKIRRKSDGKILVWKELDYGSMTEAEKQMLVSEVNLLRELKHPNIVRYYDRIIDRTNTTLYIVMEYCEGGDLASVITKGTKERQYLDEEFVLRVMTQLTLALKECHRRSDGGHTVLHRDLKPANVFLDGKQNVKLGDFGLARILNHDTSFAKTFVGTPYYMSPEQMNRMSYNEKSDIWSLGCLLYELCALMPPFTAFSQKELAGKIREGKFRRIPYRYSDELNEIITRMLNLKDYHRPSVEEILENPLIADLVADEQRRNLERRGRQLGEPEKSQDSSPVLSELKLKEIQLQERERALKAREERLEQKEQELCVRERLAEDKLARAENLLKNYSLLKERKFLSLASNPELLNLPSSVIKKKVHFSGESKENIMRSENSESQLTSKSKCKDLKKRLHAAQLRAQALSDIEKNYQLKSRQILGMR

[7] = molecular target: Ribosomal protein S6 kinase alpha-6 (Homo sapiens) (UniProt Q9UK32); details: Compound concentration 1000.0 nM
[8] = molecular target: Serine/threonine-protein kinase 35 (Homo sapiens) (UniProt Q8TDR2); details: Compound concentration 1000.0 nM
[9] = molecular target: T3, Serine/threonine-protein kinase ULK2 (Homo sapiens) (UniProt Q8IYT8); details: Compound concentration 1000.0 nM
T3 sequence (whole entry): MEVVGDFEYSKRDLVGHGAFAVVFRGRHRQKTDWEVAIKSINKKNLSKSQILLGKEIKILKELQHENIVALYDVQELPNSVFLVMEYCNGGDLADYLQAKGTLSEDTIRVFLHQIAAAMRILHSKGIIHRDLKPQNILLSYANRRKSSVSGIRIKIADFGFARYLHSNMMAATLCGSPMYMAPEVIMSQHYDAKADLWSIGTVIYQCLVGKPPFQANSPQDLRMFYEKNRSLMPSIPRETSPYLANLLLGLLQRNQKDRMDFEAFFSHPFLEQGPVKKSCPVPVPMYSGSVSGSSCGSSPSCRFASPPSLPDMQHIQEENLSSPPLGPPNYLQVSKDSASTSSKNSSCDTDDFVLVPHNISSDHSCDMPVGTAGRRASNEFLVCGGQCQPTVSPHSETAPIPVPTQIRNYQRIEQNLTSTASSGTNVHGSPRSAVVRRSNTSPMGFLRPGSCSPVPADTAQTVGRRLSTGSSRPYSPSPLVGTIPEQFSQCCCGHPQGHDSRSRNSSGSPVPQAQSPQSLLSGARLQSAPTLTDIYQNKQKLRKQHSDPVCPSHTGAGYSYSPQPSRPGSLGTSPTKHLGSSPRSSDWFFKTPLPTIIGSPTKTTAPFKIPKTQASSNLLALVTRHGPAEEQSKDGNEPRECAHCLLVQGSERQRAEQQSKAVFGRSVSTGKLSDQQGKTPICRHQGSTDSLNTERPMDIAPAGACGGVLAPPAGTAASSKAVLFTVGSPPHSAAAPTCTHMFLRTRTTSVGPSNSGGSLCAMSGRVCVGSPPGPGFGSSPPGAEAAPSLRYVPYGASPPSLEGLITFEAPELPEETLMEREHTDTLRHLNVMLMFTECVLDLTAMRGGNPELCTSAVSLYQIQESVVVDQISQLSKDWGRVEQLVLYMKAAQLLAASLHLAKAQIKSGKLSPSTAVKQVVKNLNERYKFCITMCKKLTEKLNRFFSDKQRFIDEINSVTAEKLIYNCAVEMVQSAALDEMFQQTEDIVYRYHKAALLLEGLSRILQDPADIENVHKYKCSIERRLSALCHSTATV

[10] = molecular target: 5-hydroxytryptamine receptor 2A (Homo sapiens) (UniProt P28223); details: Compound concentration 10.0 uM
[11] = molecular target: D(3) dopamine receptor (Homo sapiens) (UniProt P35462); details: Compound concentration 10.0 uM
[12] = molecular target: D(4) dopamine receptor (Homo sapiens) (UniProt P21917); details: Compound concentration 10.0 uM
[13] = molecular target: Histamine H3 receptor (Homo sapiens) (UniProt Q9Y5N1); details: Compound concentration 10.0 uM
Sequence of Histamine H3 receptor (Homo sapiens) (Q9Y5N1 whole entry): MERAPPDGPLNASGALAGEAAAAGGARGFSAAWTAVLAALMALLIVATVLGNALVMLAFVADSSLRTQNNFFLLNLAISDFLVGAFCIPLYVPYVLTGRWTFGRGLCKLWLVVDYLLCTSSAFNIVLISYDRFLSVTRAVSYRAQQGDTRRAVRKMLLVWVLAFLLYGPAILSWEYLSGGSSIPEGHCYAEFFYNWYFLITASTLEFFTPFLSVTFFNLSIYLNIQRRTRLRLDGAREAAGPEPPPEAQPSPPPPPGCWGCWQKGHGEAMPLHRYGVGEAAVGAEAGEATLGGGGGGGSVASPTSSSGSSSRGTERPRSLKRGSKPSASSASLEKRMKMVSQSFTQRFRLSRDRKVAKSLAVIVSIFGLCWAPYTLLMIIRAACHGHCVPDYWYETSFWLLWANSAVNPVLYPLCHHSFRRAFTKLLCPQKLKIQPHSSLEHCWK

Sequence of Serine/threonine-protein kinase DCLK1 (Homo sapiens) (O15075 whole entry): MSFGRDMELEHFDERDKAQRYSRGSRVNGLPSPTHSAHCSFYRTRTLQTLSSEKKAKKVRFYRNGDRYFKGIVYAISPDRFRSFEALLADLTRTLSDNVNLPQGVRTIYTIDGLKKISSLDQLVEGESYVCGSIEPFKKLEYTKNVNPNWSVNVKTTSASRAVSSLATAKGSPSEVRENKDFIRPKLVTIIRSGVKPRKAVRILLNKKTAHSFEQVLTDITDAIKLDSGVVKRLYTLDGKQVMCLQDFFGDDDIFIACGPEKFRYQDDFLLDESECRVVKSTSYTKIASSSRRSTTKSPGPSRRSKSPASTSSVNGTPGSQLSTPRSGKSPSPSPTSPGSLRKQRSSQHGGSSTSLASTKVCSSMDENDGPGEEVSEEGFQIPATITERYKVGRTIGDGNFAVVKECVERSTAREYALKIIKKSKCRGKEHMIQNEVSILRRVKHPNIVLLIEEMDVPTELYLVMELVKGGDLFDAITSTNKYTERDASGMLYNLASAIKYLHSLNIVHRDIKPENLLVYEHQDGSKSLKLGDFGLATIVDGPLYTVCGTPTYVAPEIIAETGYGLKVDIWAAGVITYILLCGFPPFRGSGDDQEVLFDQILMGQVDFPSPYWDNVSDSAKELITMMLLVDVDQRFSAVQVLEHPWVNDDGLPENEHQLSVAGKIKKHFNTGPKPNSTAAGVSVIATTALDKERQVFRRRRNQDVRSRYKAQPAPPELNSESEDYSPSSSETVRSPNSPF
Sequence of Myosin-IIIa (Homo sapiens) (Q8NEV4 whole entry): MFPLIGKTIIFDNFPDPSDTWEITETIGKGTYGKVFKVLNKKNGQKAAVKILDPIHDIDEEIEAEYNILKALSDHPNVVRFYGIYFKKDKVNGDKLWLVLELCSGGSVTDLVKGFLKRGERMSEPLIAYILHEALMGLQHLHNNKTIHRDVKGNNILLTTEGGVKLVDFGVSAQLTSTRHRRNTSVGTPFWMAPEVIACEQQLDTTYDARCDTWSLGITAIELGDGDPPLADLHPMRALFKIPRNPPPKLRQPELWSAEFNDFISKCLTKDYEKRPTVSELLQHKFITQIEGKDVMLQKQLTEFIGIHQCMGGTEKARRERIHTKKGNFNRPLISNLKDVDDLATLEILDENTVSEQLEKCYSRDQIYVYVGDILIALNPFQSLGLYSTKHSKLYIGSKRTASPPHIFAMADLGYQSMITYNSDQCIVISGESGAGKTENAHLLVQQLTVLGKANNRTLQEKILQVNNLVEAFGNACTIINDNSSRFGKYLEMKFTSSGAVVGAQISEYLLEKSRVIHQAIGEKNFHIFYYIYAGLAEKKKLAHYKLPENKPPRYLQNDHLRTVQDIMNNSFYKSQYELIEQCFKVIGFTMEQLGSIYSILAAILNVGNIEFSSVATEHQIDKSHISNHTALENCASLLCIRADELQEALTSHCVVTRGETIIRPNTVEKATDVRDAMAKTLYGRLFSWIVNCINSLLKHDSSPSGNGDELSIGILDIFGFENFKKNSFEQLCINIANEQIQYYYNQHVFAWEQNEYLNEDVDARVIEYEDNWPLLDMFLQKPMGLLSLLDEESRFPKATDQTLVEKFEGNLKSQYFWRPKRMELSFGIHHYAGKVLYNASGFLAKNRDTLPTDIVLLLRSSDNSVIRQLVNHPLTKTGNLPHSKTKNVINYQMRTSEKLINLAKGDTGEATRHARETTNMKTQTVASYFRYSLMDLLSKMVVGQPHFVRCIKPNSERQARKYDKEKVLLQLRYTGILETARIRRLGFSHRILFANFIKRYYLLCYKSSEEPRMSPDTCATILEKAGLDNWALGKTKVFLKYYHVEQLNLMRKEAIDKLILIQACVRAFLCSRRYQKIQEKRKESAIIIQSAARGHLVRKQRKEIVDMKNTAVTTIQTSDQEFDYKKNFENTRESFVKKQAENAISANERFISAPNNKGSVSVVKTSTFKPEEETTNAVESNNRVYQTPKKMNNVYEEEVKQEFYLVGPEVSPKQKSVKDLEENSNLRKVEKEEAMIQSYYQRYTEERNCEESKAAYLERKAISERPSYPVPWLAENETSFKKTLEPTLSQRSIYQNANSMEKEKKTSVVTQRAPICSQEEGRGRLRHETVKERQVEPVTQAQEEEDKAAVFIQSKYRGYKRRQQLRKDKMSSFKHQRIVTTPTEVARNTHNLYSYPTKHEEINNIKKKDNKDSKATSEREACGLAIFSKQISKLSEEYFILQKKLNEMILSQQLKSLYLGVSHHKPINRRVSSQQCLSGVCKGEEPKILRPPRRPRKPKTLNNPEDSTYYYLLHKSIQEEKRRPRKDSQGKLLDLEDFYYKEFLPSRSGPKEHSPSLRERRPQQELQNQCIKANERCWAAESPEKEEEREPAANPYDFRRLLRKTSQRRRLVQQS
Sequence of 5-hydroxytryptamine receptor 2A (Homo sapiens) (P28223 whole entry): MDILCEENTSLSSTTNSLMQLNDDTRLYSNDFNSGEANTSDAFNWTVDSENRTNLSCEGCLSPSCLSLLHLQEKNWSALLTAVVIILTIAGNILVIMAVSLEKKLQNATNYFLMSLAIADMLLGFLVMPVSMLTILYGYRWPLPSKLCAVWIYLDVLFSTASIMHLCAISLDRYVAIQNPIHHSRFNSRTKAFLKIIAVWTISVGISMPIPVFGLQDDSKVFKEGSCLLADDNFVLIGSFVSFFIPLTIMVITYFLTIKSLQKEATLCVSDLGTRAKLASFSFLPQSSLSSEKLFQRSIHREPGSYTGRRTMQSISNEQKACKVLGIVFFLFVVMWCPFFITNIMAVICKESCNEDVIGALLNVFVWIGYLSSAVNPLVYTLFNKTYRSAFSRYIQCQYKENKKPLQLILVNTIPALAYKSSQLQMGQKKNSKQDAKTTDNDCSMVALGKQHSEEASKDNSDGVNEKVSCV
Sequence of D(4) dopamine receptor (Homo sapiens) (P21917 whole entry): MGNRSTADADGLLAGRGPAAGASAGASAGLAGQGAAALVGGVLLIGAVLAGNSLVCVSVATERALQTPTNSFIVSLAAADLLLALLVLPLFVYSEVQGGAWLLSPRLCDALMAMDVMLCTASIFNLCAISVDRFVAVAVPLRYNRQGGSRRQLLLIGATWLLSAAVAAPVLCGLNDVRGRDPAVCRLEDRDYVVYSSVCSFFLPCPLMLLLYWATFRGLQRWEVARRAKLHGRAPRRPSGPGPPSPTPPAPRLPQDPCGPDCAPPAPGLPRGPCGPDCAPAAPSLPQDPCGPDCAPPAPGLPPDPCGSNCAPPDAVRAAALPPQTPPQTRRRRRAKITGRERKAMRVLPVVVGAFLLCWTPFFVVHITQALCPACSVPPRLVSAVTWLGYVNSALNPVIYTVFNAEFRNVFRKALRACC
Sequence of Mast/stem cell growth factor receptor Kit (Homo sapiens) (P10721 whole entry): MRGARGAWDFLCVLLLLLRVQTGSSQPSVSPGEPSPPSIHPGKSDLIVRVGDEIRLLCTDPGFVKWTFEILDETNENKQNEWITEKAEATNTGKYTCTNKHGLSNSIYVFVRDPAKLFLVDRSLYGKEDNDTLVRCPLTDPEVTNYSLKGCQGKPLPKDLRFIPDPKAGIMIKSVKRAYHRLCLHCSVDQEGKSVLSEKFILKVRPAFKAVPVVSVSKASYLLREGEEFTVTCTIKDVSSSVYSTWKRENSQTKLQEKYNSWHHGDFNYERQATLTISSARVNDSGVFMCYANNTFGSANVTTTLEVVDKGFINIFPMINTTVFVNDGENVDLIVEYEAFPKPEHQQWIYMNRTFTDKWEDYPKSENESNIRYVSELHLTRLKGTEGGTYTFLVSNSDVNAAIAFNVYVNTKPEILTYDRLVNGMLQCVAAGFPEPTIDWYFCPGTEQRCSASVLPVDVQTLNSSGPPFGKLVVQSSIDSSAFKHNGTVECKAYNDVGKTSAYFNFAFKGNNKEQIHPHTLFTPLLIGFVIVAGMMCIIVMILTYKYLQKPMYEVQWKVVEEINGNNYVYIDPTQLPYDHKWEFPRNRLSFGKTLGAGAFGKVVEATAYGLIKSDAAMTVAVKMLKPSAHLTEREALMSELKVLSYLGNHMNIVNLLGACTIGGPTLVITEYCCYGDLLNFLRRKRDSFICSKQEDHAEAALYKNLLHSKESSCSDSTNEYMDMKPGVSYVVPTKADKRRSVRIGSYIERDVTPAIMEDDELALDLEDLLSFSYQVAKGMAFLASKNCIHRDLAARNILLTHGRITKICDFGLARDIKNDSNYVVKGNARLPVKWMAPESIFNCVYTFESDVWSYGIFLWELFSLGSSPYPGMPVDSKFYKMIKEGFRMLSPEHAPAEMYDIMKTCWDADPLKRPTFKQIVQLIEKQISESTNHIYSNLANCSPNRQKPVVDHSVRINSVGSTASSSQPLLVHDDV
Sequence of D(3) dopamine receptor (Homo sapiens) (P35462 whole entry): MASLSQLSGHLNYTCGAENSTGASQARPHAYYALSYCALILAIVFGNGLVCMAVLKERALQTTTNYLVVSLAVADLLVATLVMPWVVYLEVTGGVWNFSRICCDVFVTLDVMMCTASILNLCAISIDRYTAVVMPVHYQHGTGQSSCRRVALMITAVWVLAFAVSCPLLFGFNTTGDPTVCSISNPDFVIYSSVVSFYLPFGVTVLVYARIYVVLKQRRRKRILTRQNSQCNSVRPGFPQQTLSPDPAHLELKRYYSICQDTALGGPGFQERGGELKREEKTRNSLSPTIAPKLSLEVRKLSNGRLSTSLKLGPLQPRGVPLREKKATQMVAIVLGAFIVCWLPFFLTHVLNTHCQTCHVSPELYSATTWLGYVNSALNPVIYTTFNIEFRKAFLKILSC

Cc1nc(C2CCN(C(=O)c3ccc(OC(F)(F)F)cc3N)CC2)c2ncc(N3CCN(C)CC3)cc2n1 [BAY-693]
inactive: residual activity [1] 85% | residual activity [2] 100% | residual activity [3] 97% | residual activity [4] 90% | residual activity [5] 100% | residual activity [6] 100% | residual activity [7] 100% | residual activity [8] 100% | residual activity [9] 100% | inhibition [10] 4.68% | inhibition [11] -8.88% | inhibition [12] 1.98% | inhibition [13] 38.4%

CN1CCN(c2cnc3c(C4CCN(C(=O)c5ccc(OC(F)(F)F)cc5N)CC4)ncnc3c2)CC1 [BAY-885]
inactive: residual activity [1] 85% | residual activity [2] 100% | residual activity [3] 98% | residual activity [4] 98% | residual activity [5] 100% | residual activity [6] 100% | residual activity [7] 100% | residual activity [8] 100% | residual activity [9] 100% | inhibition [10] 4.33% | inhibition [11] 7.59% | inhibition [12] 12.7% | inhibition [13] 36.9%
